Assay in all cases: relative viability (nuclei count vs DMSO), 5 days (fraction); higher = more cells survive
Compound in the assay “VX-11e + Bortezomib”: CC1=CN=C(N=C1C2=CNC(=C2)C(=O)N[C@H](CO)C3=CC(=CC=C3)Cl)NC4=C(C=C(C=C4)F)Cl [VX-11e] + CC(C)C[C@H](NC(=O)[C@H](Cc1ccccc1)NC(=O)c1cnccn1)B(O)O [Bortezomib] (partner 0.002 µM)
In a few lines: (§1)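 Relative viability was taken as the ratio of nuclei in treated wells to nuclei in vehicle wells. Lung cancer cell lines in 1536-well plates received compounds by pin tool one day after seeding, either one drug alone or a fixed anchor-drug dose plus five library-drug doses (not always all listed) in √10 steps. Nuclei were counted on 4× images after 5 days of treatment, and values are medians of duplicate plates.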

Compound in the assay “VX-11e + Pemetrexed”: CC1=CN=C(N=C1C2=CNC(=C2)C(=O)N[C@H](CO)C3=CC(=CC=C3)Cl)NC4=C(C=C(C=C4)F)Cl [VX-11e] + Nc1nc2[nH]cc(CCc3ccc(C(=O)N[C@@H](CCC(=O)O)C(=O)O)cc3)c2c(=O)[nH]1 [Pemetrexed] (partner 0.2 µM)
In outline:
as §1

Compound in the assay “VX-11e + Alpelisib”: CC1=CN=C(N=C1C2=CNC(=C2)C(=O)N[C@H](CO)C3=CC(=CC=C3)Cl)NC4=C(C=C(C=C4)F)Cl [VX-11e] + Cc1nc(NC(=O)N2CCC[C@H]2C(N)=O)sc1-c1ccnc(C(C)(C)C(F)(F)F)c1 [Alpelisib] (partner 2 µM)
In outline:
as §1

Compound in the assay “VX-11e + Olaparib”: CC1=CN=C(N=C1C2=CNC(=C2)C(=O)N[C@H](CO)C3=CC(=CC=C3)Cl)NC4=C(C=C(C=C4)F)Cl [VX-11e] + O=C(c1cc(Cc2n[nH]c(=O)c3ccccc23)ccc1F)N1CCN(C(=O)C2CC2)CC1 [Olaparib] (partner 8 µM)
In outline: as §1

For the cell line HCC-44, the relative viability was found to be 0.913 with VX-11e + Bortezomib (first compound 0.04 µM); 0.912 with VX-11e + Bortezomib (first compound 0.1265 µM); 0.857 with VX-11e + Bortezomib (first compound 0.4 µM); 0.646 with VX-11e + Bortezomib (first compound 1.265 µM); 0.453 in the assay with VX-11e + Bortezomib (first compound 4 µM); 0.766 in the assay with VX-11e + Pemetrexed (first compound 0.04 µM). Besides, the relative viability in the assay with VX-11e + Pemetrexed (first compound 0.1265 µM) stood at 0.614; in the assay with VX-11e + Pemetrexed (first compound 0.4 µM), 0.63; with VX-11e + Pemetrexed (first compound 1.265 µM), 0.656; with VX-11e + Pemetrexed (first compound 4 µM), 0.793; with VX-11e + Alpelisib (first compound 0.04 µM) it was 0.796; with VX-11e + Alpelisib (first compound 0.1265 µM), 0.766. Further, the relative viability is 0.716 with VX-11e + Alpelisib (first compound 0.4 µM); 0.614 in the assay with VX-11e + Alpelisib (first compound 1.265 µM); 0.355 in the assay with VX-11e + Alpelisib (first compound 4 µM); 1.02 in the assay with VX-11e + Olaparib (first compound 0.04 µM); 0.893 with VX-11e + Olaparib (first compound 0.1265 µM); 0.897 in the assay with VX-11e + Olaparib (first compound 0.4 µM). For the same cell line, the relative viability in the assay with VX-11e + Olaparib (first compound 1.265 µM) was determined as 1.05; in the assay with VX-11e + Olaparib (first compound 4 µM), 0.93.
For HCC-78, the relative viability with VX-11e + Bortezomib (first compound 0.04 µM) stood at 0.565; with VX-11e + Bortezomib (first compound 0.1265 µM), 0.491; with VX-11e + Bortezomib (first compound 0.4 µM) it was 0.505; in the assay with VX-11e + Bortezomib (first compound 1.265 µM), 0.227; with VX-11e + Bortezomib (first compound 4 µM) it was 0.441; with VX-11e + Pemetrexed (first compound 0.04 µM), 0.938. In addition, the relative viability in the assay with VX-11e + Pemetrexed (first compound 0.1265 µM) was 0.859; with VX-11e + Pemetrexed (first compound 0.4 µM), 0.884; in the assay with VX-11e + Pemetrexed (first compound 1.265 µM), 0.858; in the assay with VX-11e + Pemetrexed (first compound 4 µM) it was 0.919; in the assay with VX-11e + Alpelisib (first compound 0.04 µM) it was 0.313; with VX-11e + Alpelisib (first compound 0.1265 µM), 0.348. Moreover, the relative viability amounted to 0.381 with VX-11e + Alpelisib (first compound 0.4 µM); 0.276 in the assay with VX-11e + Alpelisib (first compound 1.265 µM); 0.312 with VX-11e + Alpelisib (first compound 4 µM); 0.852 in the assay with VX-11e + Olaparib (first compound 0.04 µM); 0.639 with VX-11e + Olaparib (first compound 0.1265 µM); 0.834 in the assay with VX-11e + Olaparib (first compound 0.4 µM). Moreover, the relative viability came to 0.963 with VX-11e + Olaparib (first compound 1.265 µM) and 0.754 with VX-11e + Olaparib (first compound 4 µM).
As for HCC-366, the relative viability with VX-11e + Bortezomib (first compound 0.04 µM) is 0.959; in the assay with VX-11e + Bortezomib (first compound 0.1265 µM), 0.895; with VX-11e + Bortezomib (first compound 1.265 µM), 0.864; with VX-11e + Bortezomib (first compound 4 µM), 0.759; with VX-11e + Pemetrexed (first compound 0.04 µM), 0.246; with VX-11e + Pemetrexed (first compound 0.1265 µM), 0.178. Moreover, the relative viability in the assay with VX-11e + Pemetrexed (first compound 1.265 µM) worked out at 0.15; in the assay with VX-11e + Pemetrexed (first compound 4 µM), 0.138; in the assay with VX-11e + Alpelisib (first compound 0.04 µM), 0.446; with VX-11e + Alpelisib (first compound 0.1265 µM), 0.431; in the assay with VX-11e + Alpelisib (first compound 1.265 µM) it was 0.239; with VX-11e + Alpelisib (first compound 4 µM) it was 0.0901. The relative viability stood at 0.386 with VX-11e + Olaparib (first compound 0.04 µM), 0.372 in the assay with VX-11e + Olaparib (first compound 0.1265 µM), 0.271 with VX-11e + Olaparib (first compound 1.265 µM) and 0.208 with VX-11e + Olaparib (first compound 4 µM).
HCC-827: the relative viability in the assay with VX-11e + Bortezomib (first compound 0.04 µM) turned out to be 1.11; in the assay with VX-11e + Bortezomib (first compound 0.1265 µM) it was 1.1; in the assay with VX-11e + Bortezomib (first compound 0.4 µM), 1.09; with VX-11e + Bortezomib (first compound 1.265 µM), 1.2; with VX-11e + Bortezomib (first compound 4 µM), 1.02; with VX-11e + Pemetrexed (first compound 0.04 µM), 0.254. The relative viability with VX-11e + Pemetrexed (first compound 0.1265 µM) was found to be 0.226; with VX-11e + Pemetrexed (first compound 0.4 µM), 0.241; with VX-11e + Pemetrexed (first compound 1.265 µM) it was 0.271; with VX-11e + Pemetrexed (first compound 4 µM), 0.252; with VX-11e + Alpelisib (first compound 0.04 µM), 1.02; in the assay with VX-11e + Alpelisib (first compound 0.1265 µM), 1.06. Besides, the relative viability with VX-11e + Alpelisib (first compound 0.4 µM) was found to be 0.983; with VX-11e + Alpelisib (first compound 1.265 µM), 1.16; with VX-11e + Alpelisib (first compound 4 µM) it was 0.599; with VX-11e + Olaparib (first compound 0.04 µM), 0.556; with VX-11e + Olaparib (first compound 0.1265 µM) it was 0.609; with VX-11e + Olaparib (first compound 0.4 µM), 0.724. The relative viability with VX-11e + Olaparib (first compound 1.265 µM) came to 0.768; with VX-11e + Olaparib (first compound 4 µM), 0.516.

Source of the values: the supplement of paper PMC10307832.
